# Results reported in US20040009921A1, “Methods and compositions for the treatment of cancer” (Allergan, Inc., priority 2002, published 2004).
# “Also recorded” adds a separate entry of the source.
# Experiments:
# hepatocarcinoma = settings: experimental and clinical studies; cited from earlier work
# β-catenin = test: Western blotting of β-catenin protein in HEK293 cells and stable lines RBC, CAT, RmBC; type: cell-based, human; settings: for β-catenin stability / degradation, ligand applied alone: HEK293 with β-catenin and RXRα, FIG. 4B
# Procedure: (§1) (A) Western blotting analysis of HEK293 cells transfected with a combination of expression vectors for LacZ (2 μg), V5-tagged β-catenin(4 μg), and Flag-tagged RXRα (2 μg) as indicated below the gels. […] RXRα protein was measured using an HRP-conjugated mouse monoclonal antibody against the Flag tag. (B) Western blotting analysis of stable cell line RBC that overexpresses both β-catenin and RXRα. […] (C) Western blotting analysis of stable cell line CAT that overexpresses only β-catenin. […] Endogenous and overexpressed β-catenin were detected using a rabbit polyclonal antibody as indicated by “Total” whereas overexpressed β-catenin was analyzed using a mouse monoclonal antibody against the V5 tag. Endogenous and overexpressed RXRα were detected by a rabbit polyclonal antibody against RXRα, whereas overexpressed RXRα was determined by an HRP-conjugated mouse monoclonal antibody against the Flag tag. (D) Western blotting analysis of HEK293 cells transfected with a fixed amount of β-catenin (4 μg) plus an increasing amount of RXRα as indicated at the top. […] (E) Western blotting analysis of HEK293, CV-1, and Hela cells transfected with 2 μg of RXRα and 4 μg of wild type or mutant β-catenin. α. […] (F) Northern blotting analysis of RBC cells using β-catenin as a probe.
# (§2) FIG. 4 Receptor and ligand specificity in degradation of β-catenin by retinoid receptors. HEK293 cells transfected with expression vectors for β-catenin (4 μg) and RXRs (2 μg) or RARs (2 μg) and treated with ligands at concentrations indicated at the top of each gel. Protein levels were detected by Western blotting as shown in this figure. β-catenin and RARs were detected by HRP-conjugated antibodies against their V5 tag. RXRs were detected by HRP-conjugated antibodies against their Flag tag. […] In this experiment, the amount of expression vectors for RXRα and RARs used in transfection was 1 μg.
# (§3) HEK293 cells were seeded at a density of […] per dish were seeded into 100-mm dishes and cultured overnight in DMEM containing 10% FBS. Cells were transfected with 1-4 μg of various cDNA or parental expression vectors (8 μg of DNA in total) using Lipofectamine®. Five hours after transfection, cells were fed with fresh culture media DMEM containing 10% charcoal-treated FBS with vehicle DMSO or retinoids prepared in DMSO. After a given time of treatment, cells were harvested and lysed in a buffer containing 1% Nonidet® P-40, 30 mM Tris-HCl (pH7.4), 0.5 mM EDTA (pH 8.0), 150 mM NaCl, 10% glycerol, 1 mM sodium orthovanadate, 40 mM NaF, 0.5 mM phenylmethylsulfonyl fluoride (PMSF) and a cocktail of protease inhibitors (Merck).
# (§4) Total cell lysates were homogenized by passing through a QIAshredder® (Qiagen) and cleared from insoluble materials by centriftigation at 12,000 g. Protein concentration was determined using a Bradford total protein assay kit (Bio-Rad). Total cell lysates were electrophoresed using a 4-12% SDS-PAGE gradient gel and transferred to either nitrocellulose or PVDF filter membranes. The membranes were blocked with 10% non-fat milk reconstituted from dairy milk powder in phosphate-buffered saline (PBS) containing 0.1% Tween®-20 (PBST). The membranes were incubated with primary antibodies at room temperature for 2 hours or at 4° C. for overnight. After the removal of unbound antibodies, membranes were incubated with horseradish peroxidase-conjugated secondary antibodies for one hour at room temperature and washed five times with PBST.
# RXRα = test: Western blotting of RXRα protein in HEK293 cells and stable lines; type: cell-based, human; settings: HEK293 with β-catenin and RXRα, FIG. 4B
# Procedure: as §1, §2, §3, §4
Compound,development of hepatocarcinoma (hepatocarcinoma),β-catenin protein (β-catenin; HEK293 overexpressing RARα),"β-catenin stability / degradation, ligand applied alone (β-catenin)","RXRα stability, ligand applied alone (RXRα)","antagonism of the effect of AGN 4204 on degradation of RARs and β-catenin (β-catenin; HEK293 co-expressing RXRα and RARs, with AGN 4204)","β-catenin stability / degradation, ligand applied alone (β-catenin; listed as AGN194310)"
CC1=C(/C=C/C(C)=C\C=C\C(C)=C\C(=O)O)C(C)(C)CCC1 [9-cis retinoic acid],suppress the development of hepatocarcinoma,–,–,–,–,–
"C/C(=C\c1ccc(C(=O)O)cc1)c1ccc2c(c1)C(C)(C)CCC2(C)C [TTNPB, reference compound]",–,a slight decrease,have no effects; also recorded: no effect,no effect,–,–
"CCc1ccc(C2=CC(C)(C)Sc3ccc(C#Cc4ccc(C(=O)O)cc4)cc32)cc1 [compound 194310, reference compound]",–,–,no effect,no effect,not antagonized,have no effects
